Source: article PMC10518340, “Secreted LRPAP1 binds and triggers IFNAR1 degradation to facilitate virus evasion from cellular innate immunity” (Signal Transduction and Targeted Therapy, 2023)
Entries after “also recorded” stand apart in the source; their conditions may differ.

Tests used:
IFNAR1 [1] = test: Effect of lysosome / proteasome inhibitors on LRPAP1-induced IFNAR1 reduction, HEK-293T cells; conditions: 4 h, MA 20 mM; for effect on LRPAP1-induced IFNAR1 reduction: bafilomycin 1 μM, MG132 40 μM, leupeptin 50 μM
LRPAP1 [2] = format: cell-based, human
LRPAP1 [3] = format: cell-based, human; remark: listed apart in the source
LRP1 = format: cell-based, human
IFNAR1 [4] = test: IFNAR1 protein level, immunoblot, HEK-293T cells; format: cell-based, human
[5] = system: extracellular domain of IFNAR1; test: Pull-down / co-immunoprecipitation of LRPAP1 with IFNAR1; format: binding; conditions: Residues 1–436
Protocol: The interaction of LRPAP1, LRP1 and IFNAR1 was examined by immunoprecipitation using a protocol described as followed. HEK293T cells were cultured at around 90% confluence in a 100 mm tissue culture dish. Cells were washed with 10 ml of PBS and harvested in 0.5 ml of ice-cold lysis buffer ([…], pH 7.4, 1% SDS, 1% NP-40) and Protease Cocktail (Roche) and PhoSTOP (Roche). The total extract was pre-cleared with 10 μg normal rabbit IgG (Cell signaling, 2729 S) and 20 μl of protein A/G plus-agarose (Santa Cruz Biotechnology) at 4 °C on a rotor for 1 h. After gently removed protein A/G agarose beads by centrifugation at 500 rcf for 2 min, 0.2 mg of total extract was immunoprecipitated with the indicated antibodies overnight at 4 °C on a rotor. Approximately 20 μl of protein A/G plus-agarose (Santa Cruz Biotechnology) was added at 4 °C for one hour. Then, the beads were washed three times with washing buffer (lysis buffer contained 0.1% NP-40). The pellet was suspended with 40 μl PBS and 10 μl of 5× SDS-PAGE loading buffer and the samples were boiled for 10 min.
The interaction of LRPAP1, LRP1 and IFNAR1 was examined by immunoprecipitation using a protocol described as followed. HEK293T cells were cultured at around 90% confluence in a 100 mm tissue culture dish. […]

IFNAR1 [6] = test: IFNAR1 protein level, immunoblot / immunofluorescence, RD cells; format: cell-based; conditions: RD cells, 200 nM, 1 h
IFNAR1 [7] = test: IFNAR1 and LRPAP1 in membrane and cytosol fractions, HEK-293T cells; format: cell-based, human; conditions: 200 nM, 1 min to 10 min
Protocol: Then proteins were subjected to Western blotting. […] Hes1 (Abcam, ab71559).
(§1) Tissues were washed twice with PBS and made into homogenate by 2 ml grinder. Membrane proteins were separated from cytosol protein extraction by using the protocol of membrane protein extraction kit (89842, Thermo).

IFNAR1 [8] = test: LRPAP1 stimulated mouse brain ex vivo, membrane IFNAR1 immunoblot; design: species or system C57BL/6 mouse; conditions: 200 nM, ACSF, 1 h
Protocol: as §1

IFNAR1 [9] = test: Flow cytometry, cell surface IFNAR1 on 4T1 cells; format: cell-based, murine; conditions: live 4T1 cells, 200 nM
Protocol: (§2) The surface IFNAR1 was monitored by flow cytometry as previous described.[60] Briefly, murine breast cancer cells (4T1) were stained with APC-conjugated IFNAR1 (Biolegend #127314, 1:100) on ice for 30 min. […] Fluorescence-activated cells were then sorted and analyzed by Beckman Coulter CytoFLEX S Flow cytometer ([…]). The result was analyzed by FlowJo (version 10.5.3).
as §2, with “described^63.” for “described.[60]”

IFNAR1 [10] = test: IFNAR1 endocytosis, EEA1 immunofluorescence, HEK-293T cells; format: cell-based, human; conditions: 200 nM, 1 h
Protocol: Cellular expression of IFNAR1, viral protein VP1 and LRPAP1 at HEK-293T cells with and without the stimulation of EV71, the recombinant LRPAP1, and overexpression of LRPAP1 or 2A, were examined by the following protocol. Briefly, HEK-293T cells were washed twice with PBS and fixed with 4% paraformaldehyde for 20 min. Afterwards, cells were incubated with blocking buffer (10% (v/v) FBS, 1% (v/v) BSA, and 0.1% (v/v) Triton in PBS) for 2 h. Cells were then incubated with specific antibodies. […] After washing with PBST (PBS + 0.1% Tween-20) for 3 times, cells were labeled with Alexa Fluor 488 (green), or Alexa Fluor 594 (red) conjugated secondary antibody (dilution of 1:1000) (Life Technologies) for 1 h at 4 °C with shaking. After three times washing with PBST (PBS + 0.1% Tween-20), cells were followed by nuclei staining with DAPI (0.5 μg/ml) for 5 min at room temperature. Finally, cells were mounted with Prolong Gold Antifade Reagent on slides. Images were taken by Carl Zeiss LSM 880 confocal microscope using 63× oil objective and analyzed by ZEN software.

IFNAR1 [11] = test: IFNAR1 phosphorylation immunoblot, HEK-293T cells; format: cell-based, human; conditions: extracellular rLRPAP1, 1 h
EV71 [12] = test: EV71 entry and uncoating, HEK-293T cells; format: cell-based; conditions: pre-treated on ice 1 h, EV71 MOI 50, within 1 h
EV71 [13] = test: EV71 infection of newborn C57BL/6 mice; format: in vivo
Protocol: The C57BL/6 mice were purchased and were bred in the City University of Hong Kong. All animal experiment protocols were approved by the Ethics Committee of City University of Hong Kong with the license from Department of Health, Hong Kong (18-69 in DH/SHS/8/2/5 Pt.3). The studies were performed in accordance with the approved protocol. […] The neurological status and behavior of each mouse was measured every day. On day 7, mice were sacrificed, and the intestine and blood were collected for viral testing.

HCoV-OC43 = HCoV-OC43 infection of RD cells (viral RNA, TCID50, CPE); conditions: pre-treated 1 h (or siRNA 24 h), MOI 1, 72 h
EV71 [14] = test: EV71 infection of RD cells (viral RNA, titer, viral protein, CPE)

## CO/C1=C\C(C)=C\[C@@H](C)[C@@H](O)[C@@H](C)C/C(C)=C/C=C/[C@H](OC)[C@@H]([C@@H](C)[C@@H](O)[C@H](C)[C@@]2(O)C[C@@H](O)[C@H](C)[C@@H](C(C)C)O2)OC1=O [bafilomycin]
IFNAR1 [1]
  effect on LRPAP1-induced IFNAR1 reduction: prohibited by lysosome inhibitors

## CN [methylamine]
IFNAR1 [1]
  effect on LRPAP1-induced IFNAR1 reduction: prohibited by lysosome inhibitors
IFNAR1 [1]; ubiquitin, LRPAP1, IFNAR1 expressed
  protection of IFNAR1 from degradation: IFNAR1 was protected from degradation

## SARS-CoV-2 3CL^pro: SARS-CoV-2 main protease, transfected pCMV-SARS-CoV-2-3CL
LRPAP1 [2]
  LRPAP1 expression: increased LRPAP1 expression
LRPAP1 [3]
  extracellular LRPAP1 level: extracellular LRPAP1 increase
LRP1
  LRP1 protein level: decreased protein level
IFNAR1 [4]
  IFNAR1 level: decreased IFNAR1 level; also recorded: expression of IFNAR1 decreased

## rLRPAP1: recombinant LRPAP1 from pQTEV-LRPAP1 expressed in E. coli
[5]
  direct binding to IFNAR1 extracellular domain (pull-down): directly bound with the extracellular domain of IFNAR1
IFNAR1 [4]; 50 nM, 1 h
  IFNAR1 level on rLRPAP1 treatment: marginal detectable level
IFNAR1 [4]; 200 nM, 1 h
  IFNAR1 level on rLRPAP1 treatment: undetectable level
IFNAR1 [4]; within 15 min, dose-dependent
  IFNAR1 level on rLRPAP1 treatment: rapidly decreased within 15 min in a rLRPAP1 dose-dependent manner
IFNAR1 [6]
  IFNAR1 in the cell membrane (immunofluorescence): sharply decreased in the cell membrane
IFNAR1 [7]
  IFNAR1 level in membrane / cytosol fractions: IFNAR1 consistently decreased with time
  rLRPAP1 enrichment in membrane fractions: gradually enriched in the membrane fractions
IFNAR1 [8]
  membrane IFNAR1 in mouse brain: significantly lower
IFNAR1 [9]
  cell surface IFNAR1: significantly reduced cell surface IFNAR1
IFNAR1 [10]
  IFNAR1 endocytosis (EEA1 level): increased level of early endosome marker (EEA1)
IFNAR1 [11]
  phosphorylated IFNAR1: promoted in an extracellular rLRPAP1 dose-dependent manner
EV71 [12]
  EV71 entry and uncoating rate: promoted EV71 entry and uncoating rate within 1 h
EV71 [13]; co-injected EV71 and rLRPAP1, 7 days
  survival rate: 75%
EV71 [13]; co-injected EV71 and rLRPAP1, after two injections (Day 3)
  mice with severe neurological deficits: 50%
EV71 [13]; co-injected EV71 and rLRPAP1, i.p. twice per week
  physical condition of mice: severe physical disharmony
EV71 [13]; i.p. EV71 (2*10^8 PFU) + rLRPAP1 (200 nM) twice per week
  EV71 infection and disease in mice: potently enhanced EV71 infection and exacerbated the disease in newborn C57BL/6 mice
HCoV-OC43
  HCoV-OC43 intracellular RNA level: increased significantly
  HCoV-OC43 viral titer (TCID50): increased significantly
EV71 [14]; RD cells, 9 h, plasmid, recombinant protein or peptide pre-treatment, viral RNA / titer
  EV71 infection: significantly promoted EV71 infection
EV71 [14]; antibody added 3 h post infection (MOI 10, 6 h), rLRPAP1 200 nM pre-treatment 1 h
  EV71 induced CPE: significantly promoted EV71 infection and EV71-induced CPE
